These are literature values, as cited in patent US7208498B2, “Piperidino pyrimidine dipeptidyl peptidase inhibitors for the treatment of diabetes” (Merck & Co., Inc., priority 2002, dated 2007).

Data set [1] has as its system cardiac allograft. The note with it: rats; Transplantation 63, 1495–1500 (1997).
For data set [2], the system named is hematopoiesis. The settings on record: mouse, cyclophosphamide-induced neutropenia; WO 99/56753.
The subject of data set [3] is GRF.

In the case of `CC(C)N1CCC(c2ccccc2)(c2ccccc2)CC1` [Prodipine, Pro-Pro-diphenyl-phosphonate], the cardiac allograft survival result in data set [1] is reported as “double cardiac allograft survival in rats from day 7 to day 14”.

On to `CC(C)[C@H](N)C(=O)N1CCC[C@H]1B(O)O` [Val-Boro-Pro], for which the hematopoiesis result in data set [2] is “stimulated hematopoiesis”.

As to `CC[C@H](C)[C@H](N)C(=O)N1CCC[C@H]1C(=O)N[C@H](C(=O)O)[C@@H](C)CC` [diprotin A], the “degradation of GRF in plasma to GRF[3-44]” value in data set [3] is reported as “prevented”.
